Here are results for eight molecules from patent US9738690B2, “Polyoma virus JC peptides and proteins in vaccination and diagnostic applications” (UNIVERSITAET ZUERICH, priority 2011, dated 2017).

Entries after “also recorded” stand apart in the source; their conditions may differ. Where two headings read alike, the source gives them in different places.

Test [1] has as its system brain-derived PHA-expanded cells. Put plainly: Determination of precursor frequency by limiting dilution. The conditions noted are these: fraction of T cells responding. In kind it is cell-based, human. As for the experimental part: Frequencies of VP1/VLP-specific cells were determined by limiting dilution. 20, 200, 2.000 or 20.000 brain-derived PHA-expanded cells were seeded in quadruplicates in 96-well U-botton microtiter plates with 1×10^5 autologous irradiated PBMC with or without VP1/VLP protein. After 72 hours, proliferation was measured by methyl-^3H-thymidine incorporation. Frequencies were calculated as previously described (Taswell, 1981). Observed data were: r, the number of negatively responding cultures or wells of each dose i; n, the total number of wells per dose i, and X, the number of cells in the dose i. Calculated data was: pi=ri/ni, the fraction of negatively responding cultures of each dose i. The frequency was calculated using the following formula: f=−(ln pi)/λi.

Test [2] shares this test system. The class given is cell-based, human.
Test [3] has as its system brain-derived VP1/VLP-specific T cell clones. The test can be described thus: Fine specificity of brain-derived VP1/VLP-specific T cell clones (TCC). The class given is cell-based, human. The conditions noted are these: for recognition by brain-derived VP1-specific TCC: each TCC tested against 64 15-mer peptides spanning VP1. Here is the method:
2.5×10^4 brain-derived PHA-expanded cells were seeded in 96-well U-botton microtiter plates with 1×10^5 autologous irradiated PBMC with or without VP1/VLP protein. After 48 hours of culture, plates were split into mother and daughter plates. Proliferation was measured in daughter plates by methyl-^3H-thymidine incorporation. VP1/VLP-responsive cultures were identified in mother plates, and IL-2 was added every 3-4 days until day 12. T cell clones (TCC) were established from positive cultures by seeding cells from VP1/VLP-responsive wells under limiting dilution conditions at 0.3 and 1 cell/well in 96-well U-botton microtiter plates, and addition of 2×10^5 allogeneic, irradiated PBMC and 1 μg/ml of PHA-L in complete RPMI. After 24 h, 20 U/ml of human recombinant IL-2 were added. VP1/VLP specificity was then confirmed seeding 2.5×10^4 cells from growing colonies with autologous irradiated PBMC with or without VP1/VLP protein for 72 h. Specific cultures were restimulated every two weeks with 1 μg/ml PHA-L, 20 U/ml hrIL-2 and allogeneic irradiated PBMC, and hrIL2 was added every 3-4 days.
Prior data had shown that CD4+ differentiate into certain T helper phenotypes such as Th1 cells (IFN-gamma producers), Th17 cells secreting IL-17, Th2 cells expressing the signature cytokine IL-4, or T regulatory cells based on the expression of certain transcription factors (Zhu et al., 2010). The differentiation into Th1 or Th2 cells is considered mutually exclusive and controlled by the transcription factors T-bet (Th1) and Gata-3 (Th2) (Zhu et al., 2010). […] VP1/VLP-specific TCC were generated as described in material and methods. Initially 21 VP1/VLP-specific single cell-derived cultures were generated by limiting dilution and characterized for TCRV beta expression, functional phenotype and fine specificity (Table 2). This characterization allowed the identification of 11 presumed different TCC. The number of single cell growing cultures corresponding to each TCC gives an idea about the frequency of each TCC in the brain infiltrate (FIG. 3a). TCC-4 was most abundant and represented by 5 colonies emerging from single growing wells, followed by TCC-2 with 3 single cell growing cultures, TCC-1, -8, -9 and -10 with 2 single cell growing cultures and finally TCC-3, -5, -6, -7 and -11 with only 1 single cell growing culture. […] Taking into account both the number of different TCC recognizing a specific peptide and the frequency of each TCC in the brain infiltrate the immunodominant peptides recognized by VP1 specific brain infiltrating TCC were VP134, VP174, VP1319 and VP1335 confirming the fine specificity obtained using the brain-derived bulk cell population (FIG. 3c). […] For three of the immunodominant peptides (VP134, VP1319 and VP1335) we found TCC with both phenotypes. The T helper phenotype of Th1-2 and Th1 TCC was confirmed my measuring IL-4 and IFN-gamma protein secretion by ELISA and by determining the expression of mRNAs of the transcription factors Gata3 and T-bet. Th1-2 TCC (n=5) secreted IL-4 in addition to IFN-gamma, while IL-4 secretion was barely detectable in Th1 TCC (n=6) (FIG. 6c). Cytokine secretion profiles were not due to stimulation with PHA, since the same stable patterns were observed after specific stimulation with VP1/VLP protein by intracellular cytokine staining or ELISA measurements from culture supernatants. Transcription factor expression confirmed the phenotype of the TCC. […]

Test [4] has as its system unmanipulated PBMC. The class given is cell-based, human.
The subject of test [5] is CSF-derived PHA-expanded cells. In kind it is cell-based, human.
Test [6] relates to peripheral blood-derived PHA-expanded cells. The class given is cell-based, human.
In test [7] the test system is VP1-specific T-cells. Put plainly: Flow cytometry characterization of VP1-specific T cells of the vaccinated patient. In kind it is cell-based, human. (Flow cytometry measures light scatter and fluorescence of single cells or particles in a stream.)
Test [8] concerns JCV. The conditions noted are these: cited from earlier work.
The subject of test [9] is peripheral blood mononuclear cells (PBMC). The test can be described thus: 3H-thymidine incorporation assay of patient PBMC with VP1. In kind it is cell-based, human.
Test [10] relates to JCV. The test can be described thus: Individual healing attempt: therapeutic vaccination of PML patients with VP1, imiquimod and IL-7. The class given is in vivo, human. The conditions noted are these: patient with idiopathic CD4+ lymphopenia and PML, s.c. VP1 + dermal imiquimod + IL-7. Here is the method: An individual healing attempt was performed in a patient with idiopathic CD4+ lymphopenia, a rare constitutive immunodeficiency, who developed PML (referred to as “patient Hamburg” in FIG. 11). The patient had been healthy, i.e. not experienced unusual or frequent infections, throughout their life, and in February 2010 was hospitalized with signs of an encephalitis of unknown origin. They were thoroughly worked up, and a diagnosis of suspected EBV-related encephalitis was made. Following transient improvement during antiviral therapy, they deteriorated further albeit slowly. […] In parallel, the inventors found a low CD4+ T cell count (around 300/microliter) as well as a CD4+/CD8+ ratio of 0.5 or less, which are both consistent with the diagnosis of idiopathic CD4+ lymphopenia. In addition, in vitro experiments in the laboratory documented an absent T cell response to JCV virus VP1 in peripheral blood mononuclear cells and an almost complete absence of naïve CD4+ T cells. Following these observations, the inventors reasoned that the patient probably had developed PML based on a pre-existing and probably genetically determined low CD4+ number, which became further accentuated by entirely physiological immune involution, which sets in and increases above 50 years of age.
The vaccination approach in the above patient included the following steps (for timing of vaccinations and tests see scheme below): Subcutaneous injection with the entire recombinant major capsid protein VP1 (provided by the Life Science Inkubator, Bonn) in combination with a dermally applied TLR7 agonist (imiqimod, Aldara; commercially available) and i.v. recombinant IL-7 (Cytheris). The VP1 protein was administered in the form of virus-like particles (VLP), as the recombinantly expressed VP1 protein associated to such particles under the conditions used herein.
Another individual healing attempt was performed in a patient with breast cancer who received chemotherapy and developed acute myeloid leukaemia (AML) as a side effect of the chemotherapy. The patient then received an autologous and allogeneic hematopoietic stem cell transplant as treatment of the AML and subsequently developed acute graft-versus-host disease (grade IV). […] This case is referred to as “patient Zurich” in FIG. 11. Both patients were treated by recombinant IL-7 (s.c.). 2 days later, the first dose of VP1 (s.c. 1 mg, imiquimod cream on the skin) was administered. 2 days after the first dose of VP1, the second dose of rIL-7 was given.
On day 12 after the first IL-7 dose, the patients received a second vaccination with VP1 s.c. plus imiquimod, and in this case simultaneously rIL-7. At week 6, a third dose of VP1/imiquimod and a fourth dose of rIL-7 were administered. […] A stimulation index of >2 is considered a positive response.

For test [11] the following is noted: recombinant IL-7 together with antiviral drugs, case of CD4+ lymphopenia; cited from earlier work.

Take “4: 15-mer JCV Agno peptide starting at amino acid 25; likely SEQ ID NO 1 (image row of Table 1) (AQRILIFLLEFLLDF; JC virus) [Peptide 4]”: the “precursor frequency of peptide-specific T cells” value in test [1] is recorded as 1/14492.

With “20: 15-mer VP1 peptide starting at amino acid 34; likely SEQ ID NO 2 (image row of Table 1) (VDSITEVECFLTPEM; JC virus) [Peptide 20]”, the “stimulation index (SI), individual JCV peptides” value in test [2] (brain-derived PHA-expanded cells, individual peptides at 10 μM, 72 hours, listed as VP134) was “strongest response”. Further, the “immunodominance among VP1 specific brain infiltrating TCC” value in [3] (by number of TCC recognizing the peptide and frequency of each TCC) is on record as “immunodominant”. Further, the “recognition by brain-derived VP1-specific TCC” value (from here on “recognition”) in test [3] was “recognized by TCC-1 and -2”.

Take “23: 15-mer VP1 peptide starting at amino acid 54; likely SEQ ID NO 3 (image row of Table 1) [Peptide 23]”: the “recognition” value in [3] is recorded as “recognized by TCC-3”.

Regarding “Tetanus toxoid [TTx, reference compound]”, in test [4], the proliferative response result was “significantly stronger response”. Moreover, the “stimulation index (SI)” value is 14 in test [5], 6.5 in [6] and “no response” in [2].

On to “VP1/VLP: recombinant JCV major capsid protein VP1 forming virus-like particles; VP1 and VLP used interchangeably”, for which the “cell type proliferating after VP1 stimulus” value in [7] (6 weeks after immunization) was “Only CD4+ cells proliferate”. In addition, in test [7] (antigen day 0, restimulated day 6, intracellular cytokine staining, FACS), the “cytokine expression of CD4+ T cells after VP1 stimulation” value is listed as “produce IFN-gamma after VP1 stimulation”. In test [8] (with FCA), the “immune response after vaccination with Freund's Complete Adjuvant (FCA)” value was “induces an immune response”. Besides, the “immune response after vaccination without adjuvant” value in test [8] (without adjuvant) is on record as “not immunogenic”. In test [9] (patient Hamburg and patient Zurich, PBMC 1×10e5 cells/well with VP1/VLP, 7 days, VP1 s.c. 1 mg + imiquimod + rIL-7), the “immune response against JCV after vaccination (stimulation index, >2 positive)” value is on record as “positive immune response against JCV”. In addition, the “T cell response to JCV VP1 in PBMC before vaccination” value in [9] (patient with idiopathic CD4+ lymphopenia and PML, before vaccination) is “absent”. Moreover, in test [9] (patient with idiopathic CD4+ lymphopenia and PML, s.c. VP1 + dermal imiquimod + IL-7), the “in vitro proliferative response against JCV VP1 after vaccination” value is given as “in vitro proliferative response against JCV VP1 after only two vaccinations”. In addition, in [10], the “CSF cell counts after vaccination” value was “slightly elevated CSF cell counts” and the “JCV viral load after vaccination” value is 0. Besides, in test [10] (listed as VP1), the “brain MRI imaging after vaccination” value is recorded as “slight contrast enhancement around the PML lesions” and the “clinical course after vaccination” value is “clinical improvement with slight delay; also recorded: clinically improving”. For the same molecule, the “stimulation index (SI)” value in test [5] (CSF-derived PHA-expanded cells, VP1/VLP 2 μg/ml, TTx 5 μg/ml, 72 hours) turned out to be 7. Moreover, the “stimulation index (SI)” value in [6] (PHA-expanded PBMC, VP1/VLP 2 μg/ml, TTx 5 μg/ml, 72 hours) is on record as “negative”. For the same molecule, the “stimulation index (SI)” value in [2] (brain-derived PHA-expanded T cells, VP1/VLP 2 μg/ml, TTx 5 μg/ml, 72 hours) is more than 600.

As for “VP191: 15-mer VP1 peptide starting at amino acid 91; likely peptide 31, SEQ ID NO 11 (LNEDLTCGNILMWEA; JC virus)”, in [3], the “recognition” value is listed as “recognized by TCC-5”.

For “VP1143: 15-mer VP1 peptide starting at amino acid 143; likely peptide 43, SEQ ID NO 23 (HFFSVGGEALELQGV; JC virus)”, the “recognition” value in [3] is given as “recognized by TCC-6”.

B1: recombinant IL-7: recombinant IL-7 (Cytheris) (protein, UniProt P13232 26-177, looked up)
Interleukin-7: DCDIEGKDGKQYESVLMVSIDQLLDSMKEIGSNCLNNEFNFFKRHICDANKEGMFLFRAARKLRQFLKMNSTGDFDLHLLKVSEGTTILLNCTGQVKGRKPAALGEAQPTKSLEENKSLKEQKKLNDLCFLKRLLQEIKTCWNKILMGTKEH
Regarding B1, the clinical outcome in test [11] is recorded as “substantial improvement”.
